Values after ≈ are worked out from the molar mass of the structure shown. Active and inactive are the calls of the source. No cut-off for these calls is given here.
How the values were obtained:
[1] = Solubility of the compound in 5% saline and 50% PEG400; format: physicochemical
[2] = Toxicity in male C57BL/6 mouse allografted with mouse MB49 cells assessed as body weight change at 1 mg/kg,iv bid measured after 14 days; format: organism-based; conditions: in vivo, 336 h, time 14 day
[3] = system: T-24; assay: Inhibition of cell migration in human T24 cells at 0.125 uM incubated for 12 hrs by scratch assay (reference value: 66 %); format: functional; conditions: T-24, 12 h
[4] = AUC(0 to t) in Sprague-Dawley rat at 5 mg/kg, iv measured upto 24 hrs; format: ADME, organism-based; conditions: in vivo
[5] = system: T-24; assay: Induction of cell cycle arrest in human T24 cells assessed as accumulation of cells at G1 phase at 0.25 uM incubated for 24 hrs by RNase A/Propidium Iodide staining based flow cytometry analysis (reference value: 43.80 %); format: functional
[6] = Toxicity in ICR mouse assessed as body weight change at 688 mg/kg, IG administered once for 14 days; format: organism-based; conditions: in vivo, po, 336 h, time 14 day
[7] = system: T-24; assay: Antiproliferative activity against human T24 cells assessed as inhibition of cell proliferation at 0.25 uM incubated for 72 hrs by MTT assay relative to control; format: functional
[8] = Antitumor activity against mouse MB49 cells implanted in male C57BL/6 mouse model assessed as reduction in tumor weight at 1 mg/kg,iv bid measured after 14 days relative to control; format: functional; set-up: scale not given: the % may be the effect or the level left; conditions: time 14 day
[9] = Downregulation of BMX expression level in human T24 cells at 0.5 uM incubated for 24 hrs by Western blotting analysis relative to control; format: functional, T-24
[10] = Downregulation of p-AKT expression level in human T24 cells at 0.13 to 0.50 uM incubated for 24 hrs by Western blotting analysis relative to control; format: functional, T-24; conditions: dose 0.13-0.5 µM, at 0.13 to 0.5 µM
[11] = system: T-24; assay: Induction of cell cycle arrest in human T24 cells assessed as accumulation of cells at G2/M phase at 0.25 uM incubated for 24 hrs by RNase A/Propidium Iodide staining based flow cytometry analysis (reference value: 22.67 %); format: functional
[12] = system: T-24; assay: Antiproliferative activity against human T24 cells assessed as inhibition of cell proliferation at 0.25 uM incubated for 120 hrs by MTT assay relative to control; format: functional
[13] = system: Huh-7; assay: Antiproliferative activity against human Huh-7 cells assessed as inhibition of cell proliferation measured after 72 hrs by MTT assay; format: functional, cell-based; conditions: Huh-7, 72 h
[14] = Antiproliferative activity against […] MB49 cells assessed as inhibition of cell proliferation measured after 72 hrs by MTT assay; format: functional, cell-based; conditions: MB49, 72 h
[15] = system: MB49; assay: Antitumor activity against mouse MB49 cells implanted in male C57BL/6 mouse model assessed as reduction in tumor volume at 1 mg/kg,iv bid measured after 14 days; format: functional, organism-based; conditions: time 14.0 day
[16] = system: T-24; assay: Induction of cell cycle arrest in human T24 cells assessed as accumulation of cells at S phase at 0.13 uM incubated for 24 hrs by RNase A/Propidium Iodide staining based flow cytometry analysis (reference value: 31.27 %); format: functional
[17] = Solubility of the compound in PEG400; format: physicochemical
[18] = system: A549; assay: Antiproliferative activity against human A549 cells assessed as inhibition of cell proliferation measured after 72 hrs by MTT assay; format: functional, cell-based; conditions: A549, 72 h
[19] = system: T-24; assay: Induction in apoptosis in human T24 cells assessed as viable cells at 0.5 uM incubated for 48 hrs by Annexin V-FITC staining based flow cytometry analysis (reference value: 90.44 %); format: functional; conditions: read-out: Activity

solubility [1]: 5000 µg/mL (≈ 13 mM)
AUC(0-t) at 24 h [4]: 1350 ng·h/mL
IC50 [13]: 1 µM
solubility [17]: Not_active
IC50 [18]: 0.23 µM
SMILES: C[C@H]1CCC/C=C/[C@@H]2C[C@H](O)C[C@H]2[C@H](OC(=O)c2cccnc2)/C=C/C(=O)O1
Activity [2]: Non-toxic
wound closure at 0.125 µM [3]: 22%
Activity [5]: 48.88%
Activity [6]: Non-toxic
inhibition at 0.25 µM [7]: 54%
Activity [8]: 48%
Activity [9]: 35%
Activity [10]: 46%
Activity [11]: 19.43%
inhibition at 0.25 µM [12]: 91%
IC50 [14]: 4.77 µM
Activity [15]: Active
Activity [16]: 28.6%
viability at 0.5 µM [19]: 65.6%

From ChEMBL document CHEMBL6103652, “Niacin Ester Derivative of Brefeldin A as a Potential Dual-Target Arf1/BMX Inhibitor for Bladder Cancer” (J Nat Prod, 2025)
